One test addresses human M2 receptor (Homo sapiens (Human), UniProt P08172). The test can be described thus: In vitro M2 functional assay (intracellular calcium, FLiPR Tetra). It counts as cell-based. To be noted: for M2 EC50 / EC50: CHOK1 cells stably expressing human M2 receptor and Gα16, calcium flux, No Response = no significant response of calcium flux indicative of agonism; for activation at 10 µM: response at 10 μM compound, relative to an EC100 concentration of acetylcholine, read-out: M2 % RE @ 10 μM. The method, then: (§1) In Vitro M4 &M2 Functional Assay
(§2) The functional activity of compounds at the M4 and M2 receptors was determined by measuring changes in the level of intracellular calcium ions caused by signalling cascades mediated by the receptor. Intracellular Calcium levels were measured using a calcium sensitive fluorescent dye, calcium 5 (Molecular Devices) The changes in fluorescence were monitored by a fluorescent imager, FLiPR Tetra (Molecular devices). Increases in intracellular calcium were readily detected upon activation of both receptors by the muscarinic receptor agonist Acetylcholine.
(§3) CHOK1 cells stably expressing human M4 or M2 receptor and co-expressing the accessory g-protein Gα16 were routinely grown as monolayers in Hams-F12 medium (Invitrogen) supplemented with 10% foetal bovine serum (FBS) (Hyclone), 500 ug/mL Geneticin and 250 ug/mL zeocin (both invitrogen) in 5% CO2 at 37° C. Once confluent is cells cryopreserved by freezing at −186° C. in freezing solution (90% FBS 10% DMSO) (Sigma-Aldrich Co.). Twenty-four hours prior to testing cells resuscitated and freezing media removed via centrifugation, cells then seeded in a black walled clear bottom 384 well plates (Corning) at a density of 15,000 cells/well in Hams F12 media supplemented with 10% FBS. On the day of assay, growth media was removed and replaced with 63 μl of Calcium 5 dye solution (Molecular Devices) in assay buffer (HBSS, 20 mM HEPES, 0.1% BSA, 1 mM Probenecid pH7.4 (Sigma-Aldrich Co.)) per well (each vial of Calcium 5 resuspended in 27 mL of assay buffer). Cells were then incubated for 45 minutes at 37° C., 5% CO2. Compound was serially diluted in DMSO (log/half log) before being diluted 1:20 with assay buffer. 7 μl of compound diluted in assay buffer was then added to cells on FLiPR tetra and fluorescence intensity measured for 5 minutes. EC50 values for compounds were determined from ten point half log scale dose-response studies and represent the concentration of compound required to […] maximal response. Curves were generated using the average of duplicate wells for each data point and analyzed using non-linear regression of four parameter dose response. Percentage Relative efficacy (RE) to an EC100 concentration of acetylcholine was reported for all compounds. The results are set out in Table 3 below in which the term “No Response” means that there was no significant response of calcium flux in the assay indicative of agonism.

A further test deals with human M4 receptor (Homo sapiens (Human), UniProt P08173). Briefly: In vitro M4 functional assay (intracellular calcium, FLiPR Tetra). The conditions noted are these: for EC50: CHOK1 cells stably expressing human M4 receptor and Gα16, calcium flux; for Emax: relative efficacy to an EC100 concentration of acetylcholine, read-out: M4 % RE. It counts as cell-based. The method, then:
as §1, §2, §3
A general note: Calcium assays in cells follow changes in intracellular calcium, usually with a dye or a luminescent sensor.

For orientation: EC50 means the concentration needed to bring the measured effect to its halfway point.

Sequence of human M4 receptor (P08173 whole entry): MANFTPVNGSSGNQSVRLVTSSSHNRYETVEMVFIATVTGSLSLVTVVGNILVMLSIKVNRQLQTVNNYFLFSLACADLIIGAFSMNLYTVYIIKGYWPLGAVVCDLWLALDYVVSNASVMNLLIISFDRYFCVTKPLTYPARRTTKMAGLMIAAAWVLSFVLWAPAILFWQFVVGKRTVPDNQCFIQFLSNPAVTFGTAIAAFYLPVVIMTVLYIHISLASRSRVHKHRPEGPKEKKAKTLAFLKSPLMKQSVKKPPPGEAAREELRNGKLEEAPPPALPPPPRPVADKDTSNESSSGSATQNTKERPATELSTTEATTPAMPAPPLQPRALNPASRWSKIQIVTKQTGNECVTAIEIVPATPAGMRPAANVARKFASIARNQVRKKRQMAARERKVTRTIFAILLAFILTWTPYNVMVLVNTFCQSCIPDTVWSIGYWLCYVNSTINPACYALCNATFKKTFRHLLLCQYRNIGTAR
Sequence of human M2 receptor (P08172 whole entry): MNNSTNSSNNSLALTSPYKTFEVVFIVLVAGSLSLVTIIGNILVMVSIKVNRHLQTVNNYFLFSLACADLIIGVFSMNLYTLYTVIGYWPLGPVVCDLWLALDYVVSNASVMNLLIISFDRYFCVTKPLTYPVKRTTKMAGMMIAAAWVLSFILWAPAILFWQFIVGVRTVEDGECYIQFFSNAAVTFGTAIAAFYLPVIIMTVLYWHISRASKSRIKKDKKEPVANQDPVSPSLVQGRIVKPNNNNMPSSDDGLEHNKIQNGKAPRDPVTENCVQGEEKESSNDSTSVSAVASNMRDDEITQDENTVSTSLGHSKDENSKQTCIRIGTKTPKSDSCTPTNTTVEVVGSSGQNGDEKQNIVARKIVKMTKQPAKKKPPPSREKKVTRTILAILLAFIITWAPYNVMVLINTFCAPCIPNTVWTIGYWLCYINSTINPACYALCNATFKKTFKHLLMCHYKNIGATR

For `CCOC(=O)N1CCCC(N2CCC(c3cccn(CC)c3=O)CC2)CC1` (stereo not drawn) [Example 57, Ethyl 4-[4-(1-ethyl-2-oxo-1,2-dihydropyridin-3-yl)piperidin-1-yl]azepane-1-carboxylate], the “M2 EC50” value on human M2 receptor is listed as “No Response”. Further, on human M4 receptor, the EC50 is 890 nM and the Emax was determined as 37%.

`CCOC(=O)N1CCCC(N2CCC(c3cnccc3OC)CC2)CC1` (stereo not drawn) [Example 48, Ethyl 4-[4-(4-methoxypyridin-3-yl)piperidin-1-yl]azepane-1-carboxylate]: the “M2 EC50” value at human M2 receptor is “No Response”. In addition, on human M4 receptor, the EC50 was determined as 250 nM and the Emax was found to be 63%.

As for `CCOC(=O)N1CCCC(N2CCC(n3nccc3-c3sc(C)nc3C)CC2)CC1` (stereo not drawn) [Example 25, Ethyl 4-{4-[5-(dimethyl-1,3-thiazol-5-yl)-1H-pyrazol-1-yl]piperidin-1-yl}azepane-1-carboxylate], on human M2 receptor, the “M2 EC50” value is “No Response”. In addition, at human M4 receptor, the EC50 stood at 270 nM and the Emax is 46%.

Take `CCOC(=O)N1CCCC(N2CCC(OC)(c3nccn3C)CC2)CC1` (stereo not drawn) [Example 13, Ethyl 4-[4-methoxy-4-(1-methyl-1H-imidazol-2-yl)piperidin-1-yl]azepane-1-carboxylate]: at human M2 receptor, the “M2 EC50” value was “No Response”. Further, at human M4 receptor, the EC50 was determined as 2880 nM and the Emax came to 24%.

As for `CCOC(=O)N1CCCC(N2CCC(c3cccnc3OCc3cscn3)CC2)CC1` (stereo not drawn) [Example 76, Ethyl 4-{4-[2-(1,3-thiazol-4-ylmethoxy)pyridin-3-yl]piperidin-1-yl}azepane-1-carboxylate], on human M2 receptor, the “M2 EC50” value was “No Response”. On human M4 receptor, the EC50 turned out to be 22 nM and the Emax was determined as 84%.

As to `CCOC(=O)N1CCCC(N2CCC(c3nccn3CC(=O)NC3CCCCC3)CC2)CC1` (stereo not drawn) [Example 2, Ethyl 4-(4-{1-[(cyclohexylcarbamoyl)methyl]-1H-imidazol-2-yl}piperidin-1-yl)azepane-1-carboxylate], the “M2 EC50” value at human M2 receptor is “No Response”. Besides, at human M4 receptor, the EC50 came to 1870 nM and the Emax amounted to 51%.

`CCOC(=O)N1CCCC(N2CCC(c3cccnc3CC)CC2)CC1` (stereo not drawn) [Example 70, Ethyl 4-[4-(2-ethylpyridin-3-yl)piperidin-1-yl]azepane-1-carboxylate]: the “M2 EC50” value on human M2 receptor is given as “No Response”. Besides, on human M4 receptor, the EC50 came to 210 nM and the Emax is 64%.

In the case of `CCOC(=O)N1CCCC(N2CCC(c3nccn3C)CC2)CC1` (stereo not drawn) [Example 9, Ethyl 4-[4-(1-methyl-1H-imidazol-2-yl)piperidin-1-yl]azepane-1-carboxylate], the “M2 EC50” value on human M2 receptor is recorded as “No Response”. Also, at human M4 receptor, the EC50 is 1050 nM and the Emax amounted to 62%.

For the molecule `CCOC(=O)N1CCCC(N2CCC(c3cccnc3-c3ncco3)CC2)CC1` (stereo not drawn) [Example 80, Ethyl 4-{4-[2-(1,3-oxazol-2-yl)pyridin-3-yl]piperidin-1-yl}azepane-1-carboxylate], the “M2 EC50” value at human M2 receptor is “No Response”. Also, on human M4 receptor, the EC50 was determined as 850 nM and the Emax came out at 43%.

For `CCOC(=O)N1CCC[C@H](N2CCC(c3nccn3C)CC2)CC1` [Example 83, Ethyl (4S)-4-[4-(1-methyl-1H-imidazol-2-yl)piperidin-1-yl]azepane-1-carboxylate], the “M2 EC50” value at human M2 receptor is listed as “No response”. On human M4 receptor, the EC50 turned out to be 1500 nM and the Emax amounted to 55%.

For `CCOC(=O)N1CCCC(N2CCC(n3nccc3-c3cnn(C(C)C)c3)CC2)CC1` (stereo not drawn) [Example 22, Ethyl 4-(4-{5-[1-(propan-2-yl)-1H-pyrazol-4-yl]-1H-pyrazol-1-yl}piperidin-1-yl)azepane-1-carboxylate], the EC50 on human M2 receptor was determined as 680 nM; on human M4 receptor it was 200 nM. Moreover, on human M2 receptor (relative efficacy to an EC100 concentration of acetylcholine), the “M2 % RE” value stood at 38%. In addition, the Emax on human M4 receptor is 68%.

In the case of `CCOC(=O)N1CCCC(N2CCC(c3nnccc3OC)CC2)CC1` (stereo not drawn) [Example 71, Ethyl 4-[4-(4-methoxypyridazin-3-yl)piperidin-1-yl]azepane-1-carboxylate], at human M2 receptor, the “M2 EC50” value was “No Response”. Further, on human M4 receptor, the EC50 was 1050 nM and the Emax came to 45%.

Consider `CCOC(=O)N1CCC[C@H](N2CCC(n3cccn3)CC2)CC1` [Example 81, Ethyl (4S)-4-[4-(1H-pyrazol-1-yl)piperidin-1-yl]azepane-1-carboxylate], for which the “M2 EC50” value at human M2 receptor is “No response”. Also, at human M4 receptor, the EC50 is 85 nM and the Emax turned out to be 83%.

For the molecule `CCOC(=O)N1CCCC(N2CCC(c3cccnc3-c3ccnn3C)CC2)CC1` (stereo not drawn) [Example 64, Ethyl 4-{4-[2-(1-methyl-1H-pyrazol-5-yl)pyridin-3-yl]piperidin-1-yl}azepane-1-carboxylate], the “M2 EC50” value at human M2 receptor is reported as “No Response”. At human M4 receptor, the EC50 was 3140 nM and the Emax stood at 35%.

In the case of `CCOC(=O)N1CCC(N2CCC(c3nccn3C)CC2)CC1` [Example 1, Ethyl 4-[4-(1-methyl-1H-imidazol-2-yl)piperidin-1-yl]piperidine-1-carboxylate], on human M2 receptor, the EC50 is above 10000 nM and the activation at 10 µM came to 34%. For the same molecule, at human M4 receptor, the EC50 was 2360 nM and the Emax was 49%.

Turning to `CCOC(=O)N1CCCC(N2CCC(c3cccnc3OC(C)C)CC2)CC1` (stereo not drawn) [Example 55, Ethyl 4-{4-[2-(propan-2-yloxy)pyridin-3-yl]piperidin-1-yl}azepane-1-carboxylate], on human M2 receptor, the EC50 is above 10000 nM and the activation at 10 µM was 26%. Moreover, at human M4 receptor, the EC50 was found to be 130 nM and the Emax was 67%.

For `CCOC(=O)N1CCCC(N2CCC(c3nccs3)CC2)CC1` (stereo not drawn) [Example 26, Ethyl 4-[4-(1,3-thiazol-2-yl)piperidin-1-yl]azepane-1-carboxylate], at human M2 receptor, the “M2 EC50” value is reported as “No Response”. Further, on human M4 receptor, the EC50 was 130 nM and the Emax came to 51%.

Consider `CCOC(=O)N1CCCC(N2CCC(c3cc(C)cnc3OCC)CC2)CC1` (stereo not drawn) [Example 42, Ethyl 4-[4-(2-ethoxy-5-methylpyridin-3-yl)piperidin-1-yl]azepane-1-carboxylate], for which the “M2 EC50” value on human M2 receptor is reported as “No Response”. In addition, on human M4 receptor, the EC50 came out at 20 nM and the Emax was 82%.

On to `CCOC(=O)N1CCCC(N2CCC(n3nccc3C(=O)N(C)C)CC2)CC1` (stereo not drawn) [Example 21, Ethyl 4-{4-[5-(dimethylcarbamoyl)-1H-pyrazol-1-yl]piperidin-1-yl}azepane-1-carboxylate], for which the “M2 EC50” value at human M2 receptor was “No Response”. Moreover, at human M4 receptor, the EC50 stood at 2680 nM and the Emax stood at 45%.

Take `CCOC(=O)N1CCCC(N2CCC(c3nccn3CC(=O)NC3CC3)CC2)CC1` (stereo not drawn) [Example 19, Ethyl 4-(4-{1-[(cyclopropylcarbamoyl)methyl]-1H-imidazol-2-yl}piperidin-1-yl)azepane-1-carboxylate]: at human M2 receptor, the “M2 EC50” value was “No Response”. At human M4 receptor, the EC50 came out at 1510 nM and the Emax is 64%.

As for `CCOC(=O)N1CCCC(N2CCC(c3ccnn3C)CC2)CC1` (stereo not drawn) [Example 14, Ethyl 4-[4-(1-methyl-1H-pyrazol-5-yl)piperidin-1-yl]azepane-1-carboxylate], at human M2 receptor, the “M2 EC50” value is “No Response”. Further, at human M4 receptor, the EC50 was found to be 750 nM and the Emax stood at 55%.

On to `CCOC(=O)N1CCCC(N2CCC(c3cncnc3C)CC2)CC1` (stereo not drawn) [Example 75, Ethyl 4-[4-(4-methylpyrimidin-5-yl)piperidin-1-yl]azepane-1-carboxylate], for which the “M2 EC50” value on human M2 receptor is reported as “No Response”. At human M4 receptor, the half-maximal effective concentration (EC50) came to 1010 nM and the Emax worked out at 52%.

Regarding `CCOC(=O)N1CCCC(N2CCC(c3cccnc3-c3cnn(C(C)C)c3)CC2)CC1` (stereo not drawn) [Example 61, Ethyl 4-(4-{2-[1-(propan-2-yl)-1H-pyrazol-4-yl]pyridin-3-yl}piperidin-1-yl)azepane-1-carboxylate], the “M2 EC50” value at human M2 receptor is given as “No Response”. Besides, on human M4 receptor, the EC50 was 150 nM and the Emax came out at 66%.

For the molecule `CCOC(=O)N1CCCC(N2CCC(c3cccnc3NCC3CC3)CC2)CC1` (stereo not drawn) [Example 67, Ethyl 4-(4-{2-[(cyclopropylmethyl)amino]pyridin-3-yl}piperidin-1-yl)azepane-1-carboxylate], the “M2 EC50” value on human M2 receptor is “No Response”. Also, at human M4 receptor, the EC50 amounted to 990 nM and the Emax amounted to 37%.
